Where two headings read alike, the source gives them in different places.
Legend:
[1] = rat brain (Golovko and Murphy 2006); cited from earlier work
[2] = in the long run (Kramer et al.); cited from earlier work
[3] = animal models, incorporated in the brain (Fa 2005); cited from earlier work
[4] = CSF fatty acid analysis (passage of the blood-brain barrier); assay type: in vivo, human; details: humans, given as LO+CLA
Procedure: At baseline and during the 3rd visit, aliquots of cerebrospinal fluid (CSF) were collected by lumbar puncture in all patients. Blood and CSF samples were centrifuged and stored at −80° C., until analyses.
The CSF samples were analysed for fatty acid composition, in order to verify whether CLA and erucic acid are able to pass, and to what extent, the blood-brain barrier.
Total lipids were extracted from plasma or CSF using chloroform/methanol 2:1 (v/v) (Folch J, Lees M, Sloane-Stanley GH. A simple method for the isolation and purification of total lipid from animal tissues. J. Biol. Chem. 1957; 226: 497-509). Separation of phospholipids from total lipids was performed as previously reported (Banni S, Carta G, Angioni E, Murru E, Scanu P, Melis MP, et al. Distribution of conjugated linoleic acid and metabolites in different lipid fractions in the rat liver. J Lipid Res 2001; 42: 1056-1061.). […]
Since saturated fatty acids are transparent to UV, they were measured, after methylation, by means of a gas chromatograph (Agilent, Model 6890, Palo Alto, Calif.) equipped with split ratio of 20:1 injection port, a flame ionization detector (FID), an autosampler (Agilent, Model 7673), a 100 m HP-88 fused capillary column (Agilent), and an Agilent ChemStation software system. […]

Row | Molecule | passage through the blood-brain barrier [1] | myocardial lipidosis [2] | passage through the blood-brain barrier [3] | passage of CLA through the blood-brain barrier [4]
1 | CCCCCCCC/C=C\CCCCCCCCCCCC(=O)O [erucic acid] | hardly passes through the blood-brain barrier | cause in the long run myocardial lipidosis | – | –
2 | conjugated linoleic acid [CLA] | – | – | capable of passing through the blood-brain barrier | prompt entry of CLA through the blood-brain barrier in humans

Source: patent US20110306664A1, “MEDICAL DIETARY COMPOSITION FOR TREATING NEURODEGENERATIVE DISEASES” (SOFEDUS S.R.L., priority 2008, published 2011)
